Read-outs that look alike come from different tables or passages of the source.
Tested on: Pyricularia oryzae
Type: in vivo
Conditions: individual active compound, protective, rice leaves, evaluated 6 days after inoculation, untreated 89% infection

SMILES | Efficacy in % of the untreated control (1 ppm in the spray liquor) | Efficacy in % of the untreated control (16 ppm in the spray liquor) | Efficacy in % of the untreated control (4 ppm in the spray liquor)
CC1CCN(c2c(-c3c(F)cc(F)cc3F)c(Cl)nc3ncnn23)CC1 [I, 5-chloro-7-(4-methylpiperidin-1-yl)-6-(2,4,6-trifluorophenyl)-[1,2,4]tri-azolo[1,5-a]pyrimidine] | 10% | 32% | –
COC(=O)Nc1nc2ccccc2[nH]1 [II, methyl (1 H-benzoimidazol-2-yl)carbamate] | – | 32% | 0%

— patent publication US20070129384A1 (priority 2003, published 2007)
